Measured values published in patent publication US4670431A, “Beta-lactam antibacterial agents” (Beecham Group p.l.c., priority 1983, dated 1987).
≈ marks a conversion by molar mass, not a printed value. Where a name gives a salt, the structure may show the parent alone.

What follows are compounds tested on P. mirabilis 889 (assay: MIC against P. mirabilis 889). Settings: not given.
Type: cell-based, Proteus mirabilis
Excerpt: The antibiotic compounds of the present invention are active against a wide range of gram negative and gram positive organisms including E. coli such as, for example ESS, JT4, JT425 and NCTC 10418; Pseudomonas Spp. such Ps.aeruginosa for example 10662 and Dalgleish; Serratia marcescens US32; Klebsiella aerogenes A; Enterobacter cloacae N1; P.mirabilis such as, for example C977 and 889; P.morganii, P.rettgeri; B.subtilis; Staph aureus such as, for example Oxford and Russell; N.catarrhalis 1502; Strep faecalis I; β-Haemolytic Strep CN10. The MIC data included in the following examples is representative of the activity of the compounds of the present invention.

SMILES	MIC against P. mirabilis 889 [µg/mL]
CCN1CCN(C(=O)N[C@@H](C(=O)N[C@]2(NC=O)C(=O)N3C(C(=O)O)=C(COC(C)=O)C[S+]([O-])[C@@H]32)c2ccc(OC(C)=O)c(OC(C)=O)c2)C(=O)C1=O (single isomer, unassigned) [Example 1 Isomer B, Sodium 7β-[D-2-[(4-ethyl-2,3-dioxopiperazin-1-yl)carbonylamino]-2-(3,4-diacetoxyphenyl)acetamido]-7α-formamidocephalosporanate-1-oxide]	< 0.06
CCN1CCN(C(=O)N[C@@H](C(=O)N[C@]2(NC=O)C(=O)N3C(C(=O)O)=C(COC(C)=O)C[S+]([O-])[C@@H]32)c2ccc(OC(C)=O)c(OC(C)=O)c2)C(=O)C1=O (single isomer, unassigned) [Example 1 Isomer A, Sodium 7β-[D-2-[(4-ethyl-2,3-dioxopiperazin-1-yl)carbonylamino]-2-(3,4-diacetoxyphenyl)acetamido]-7α-formamidocephalosporanate-1-oxide]	0.5
CCN1CCN(C(=O)N[C@@H](C(=O)N[C@]2(NC=O)C(=O)N3[C@@H](C(=O)O)C(C)(C)[S+]([O-])[C@@H]32)c2ccc(OC(C)=O)c(OC(C)=O)c2)C(=O)C1=O (single isomer, unassigned; isomer a) [Example 17, Sodium 6β-[D-2-[(4-ethyl-2,3-dioxopiperazin-1-yl)carbonylamino]-2-(3,4-diacetoxyphenyl)acetamido]-6α-formamidopenicillanate-1-oxide, Isomer A]	4.0
CCN1CCN(C(=O)N[C@@H](C(=O)N[C@]2(NC=O)C(=O)N3C(C(=O)O)=C(CSc4nnnn4C)C[S+]([O-])[C@@H]32)c2ccc(OC(C)=O)c(OC(C)=O)c2)C(=O)C1=O (single isomer, unassigned) [Example 5 Isomer A, Sodium 7β-[D-2-(3,4-diacetoxyphenyl)-2-[(4-ethyl-2,3-dioxopiperazin-1-yl)carbonylamino]acetamido]-7α-formamido-3-[(1-methyl-1H-tetrazol-5-yl)thiomethyl]-ceph-3-em-4-carboxylate-1-oxide]	0.5
CCN1CCN(C(=O)N[C@@H](C(=O)N[C@]2(NC=O)C(=O)N3[C@@H](C(=O)O)C(C)(C)[S+]([O-])[C@@H]32)c2ccc(OC(C)=O)c(OC(C)=O)c2)C(=O)C1=O (single isomer, unassigned; isomer b) [Example 18, Sodium 6β-[D-2-[(4-ethyl-2,3-dioxopiperazin-1-yl)carbonylamino]-2-(3,4-diacetoxyphenyl)acetamido]-6α-formamidopenicillanate-1-oxide, Isomer B]	0.5

Same assay, conditions: Proteus mirabilis, 889

SMILES	MIC [µg/mL]
CCN1CCN(C(=O)N[C@@H](C(=O)N[C@]2(NC=O)C(=O)N3C(C(=O)O)=C(COC(C)=O)C[S+]([O-])[C@@H]32)c2ccccc2)C(=O)C1=O (single isomer, unassigned) [Example 3 Isomer A, Sodium 7β-[D-2-[(4-Ethyl-2,3-dioxopiperazin-1-yl)carbonylamino]-2-phenylacetamido]-7α-formamidocephalosporanate-1-oxide]	0.25
CCN1CCN(C(=O)N[C@@H](C(=O)N[C@]2(NC=O)C(=O)N3C(C(=O)O)=C(CSc4nnnn4C)CS[C@@H]32)c2ccccc2)C(=O)C1=O [Example 8(b), 7β-[D-2-[(4-Ethyl-2,3-dioxopiperazin-1-yl)carbonylamino]-2-phenylacetamido]-7α-formamido-3-[(1-methyl-1H-tetrazol-5-yl)thiomethyl]ceph-3-em-4-carboxylic acid, sodium salt]	0.125
CCN1CCN(C(=O)N[C@@H](C(=O)N[C@]2(NC=O)C(=O)N3C(C(=O)O)=C(COC(C)=O)C[S@@+]([O-])[C@@H]32)c2ccc(O)cc2)C(=O)C1=O (single isomer, unassigned) [Example 14 Isomer B, 7β-[D-2-[(4-Ethyl-2,3-dioxopiperazin-1-yl)carbonylamino]-2-(4-hydroxyphenyl)acetamido]-7α-formamidocephalosporanic acid 1-oxide, sodium salt]	0.12
CCN1CCN(C(=O)N[C@@H](C(=O)N[C@]2(NC=O)C(=O)N3C(C(=O)O)=C(CSc4nnnn4CC(=O)O)C[S@@+]([O-])[C@@H]32)c2ccc(OC(C)=O)c(OC(C)=O)c2)C(=O)C1=O (single isomer, unassigned) [Example 15 Isomer B, 3-[(1-Carboxymethyl-1H-tetrazol-5-yl)thiomethyl]-7β-[D-2(3,4-diacetoxyphenyl)-2-[(4-ethyl-2,3-dioxopiperazin-1-yl)carbonylamino]acetamido]-7α-formamidoceph-3-em-4-carboxylic acid-1-oxide, disodium salt]	0.25
CC(=O)OCC1=C(C(=O)O)N2C(=O)[C@@](NC=O)(NC(=O)Cc3cccs3)[C@H]2[S@@+]([O-])C1 [Example 27(b), Sodium 7α-Formamido-7β-thien-2-ylacetamidocephalosporanate-1β-oxide]	8
CCN1CCN(C(=O)N[C@@H](C(=O)N[C@]2(NC=O)C(=O)N3[C@@H](C(=O)O)C(C)(C)[S+]([O-])[C@@H]32)c2ccc(OC(C)=O)c(OC(C)=O)c2)C(=O)C1=O (stereo partly drawn) [Example 4, Sodium 6β-[D-2-[(4-ethyl-2,3-dioxopiperazin-1-yl)carbonylamino]-2-(3,4-diacetoxyphenyl)acetamido]-6α-formamidopenicillanate-1-oxide]	0.12
CCN1CCN(C(=O)N[C@@H](C(=O)N[C@]2(NC=O)C(=O)N3C(C(=O)O)=C(COC(C)=O)C[S@+]([O-])[C@@H]32)c2ccc(O)cc2)C(=O)C1=O (single isomer, unassigned) [Example 14 Isomer A, 7β-[D-2-[(4-Ethyl-2,3-dioxopiperazin-1-yl)carbonylamino]-2-(4-hydroxyphenyl)acetamido]-7α-formamidocephalosporanic acid 1-oxide, sodium salt]	0.25
CC(=O)OCC1=C(C(=O)O)N2C(=O)[C@@](NC=O)(NC(=O)Cc3cccs3)[C@H]2[S@+]([O-])C1 [Example 27(c), Sodium 7α-Formamido-7β-thien-2-ylacetamidocephalosporanate-1α-oxide]	2
CCN1CCN(C(=O)N[C@@H](C(=O)N[C@]2(NC=O)C(=O)N3C(C(=O)O)=C(COC(C)=O)CS(=O)(=O)[C@@H]32)c2ccccc2)C(=O)C1=O [Example 2, Sodium 7β-[D,2-([4-Ethyl-2,3-dioxopiperazin-1-yl]carbonylamino)-2-phenylacetamido]-7α-formamidocephalosporanate-1,1-dioxide]	8
CC1(C)[C@H](C(=O)O)N2C(=O)[C@@](NC=O)(NC(=O)[C@H](NC(=O)N3CCN(S(C)(=O)=O)C3=O)c3ccc(O)cc3)[C@H]2[S+]1[O-] (single isomer, unassigned; isomer b) [Example 24, Sodium 6β-[D-2-(4-hydroxyphenyl)-2-[[3-(methylsulphonyl)-2-oxoimidazolidin-1-yl]carbonylamino]acetamido]-6α-formamidopenicillanate-1-oxide (isomer B)]	2
CCN1CCN(C(=O)N[C@@H](C(=O)N[C@]2(NC=O)C(=O)N3C(C(=O)O)=C(CSc4nnnn4C)C[S@@+]([O-])[C@@H]32)c2ccc(O)c(O)c2)C(=O)C1=O [Example 16(e), Sodium 7β-[D-2-(3,4-dihydroxyphenyl)-2-[(4-ethyl-2,3-dioxopiperazin-1-yl)carbonylamino]acetamido]-7α-formamido-3-[(1-methyl-1H-tetrazol-5-yl)thiomethyl]-ceph-3-em-4-carboxylate-1α-oxide]	0.25
CCN1CCN(C(=O)N[C@@H](C(=O)N[C@]2(NC=O)C(=O)N3C(C(=O)O)=C(CSc4nnnn4C)C[S@+]([O-])[C@@H]32)c2ccccc2)C(=O)C1=O [Example 8(e), Sodium 7β-[D-2-[(4-Ethyl-2,3-dioxopiperazin-1-yl)carbonylamino]-2-phenylacetamido]-7α-formamido-3-[(1-methyl-1H-tetrazol-5-yl)thiomethyl]ceph-3-em-4-carboxylate-1β-oxide]	0.5
CC1(C)[C@H](C(=O)O)N2C(=O)[C@@](NC=O)(NC(=O)[C@H](N)c3ccccc3)[C@H]2[S+]1[O-] (single isomer, unassigned; isomer b) [Example 23, 6β-(D-2-Amino-2-phenylacetamido)-6α-formamidopenicillanic acid-1-oxide, isomer B]	32 (≈ 78.3 µM)
CCN1CCN(C(=O)N[C@@H](C(=O)N[C@]2(NC=O)C(=O)N3[C@@H](C(=O)O)C(C)(C)[S+]([O-])[C@@H]32)c2ccccc2)C(=O)C1=O (single isomer, unassigned) [Example 22 Isomer B, Sodium 6β-[D-2-[(4-ethyl-2,3-dioxopiperazin-1-yl)carbonylamino]-2-phenylacetamido]-6α-formamidopenicillanate-1-oxide]	1
CCN1CCN(C(=O)N[C@@H](C(=O)N[C@]2(NC=O)C(=O)N3C(C(=O)[O-])=C(C[n+]4ccccc4)C[S+]([O-])[C@@H]32)c2ccccc2)C(=O)C1=O (stereo partly drawn) [Example 7, 7β-[D-2-[(4-Ethyl-2,3-dioxopiperazin-1-yl)carbonylamino]-2-phenylacetamido]-7α-formamido-3-pyridiniummethyl-ceph-3-em-4-carboxylate-1-oxide]	8 (≈ 12.3 µM)

Same assay, conditions: Proteus mirabilis, 889, broth

SMILES	MIC [µg/mL]
NC(=O)OCC1=C(C(=O)O)N2C(=O)[C@@](NC=O)(NC(=O)Cc3cccs3)[C@H]2SC1 [Example 26(b), Sodium 3-carbamoyloxymethyl-7α-formamido-7β-thien-2-yletamido-ceph-3-em-4-carboxylate]	16
